Measurements: patent US20190059368A1, “3,5-DIMETHOXYSTILBENE ANALOGS AND USES THEREOF” (The United States of America, as represented by the …, priority 2017, published 2019)
Converted amounts (≈) assume the structure as drawn.

Assays:
[1] = tested on: Meloidogyne incognita eggs; test: M. incognita egg immersion assay (hatch and mobility of hatched J2); assay type: in vivo; settings: for effect on mobility of J2 hatched from eggs immersed in solutions (in words): in vivo
Description: (§1) Two types of assays were used to investigate activity against M. incognita: i) eggs were immersed in solutions of the test compounds, and ii) second-stage juveniles (J2) previously hatched from eggs were immersed in the test solutions. These assays were conducted with procedures similar to those in Meyer, et al. (J. Nematol. 2006, 38, 333). M. incognita race 1 (originally isolated in 2013 from a field in Maryland) was grown in the greenhouse on pepper (Capsicum annuum L.) cultivar PA-136. Egg masses were hand-picked from plant roots, rinsed three times with sterile distilled H2O, and agitated in 0.6% NaClO for 3.5 minutes to separate and surface-sterilize eggs. The eggs were rinsed in sterile distilled H2O and stored overnight at 4° C. before use in egg immersion assays. To collect J2 for direct immersion into the test compounds, sterilized eggs were placed into a hatching chamber made with a Spectra/Mesh Nylon Filter (openings 25 μm in diameter; Spectrum Laboratories Inc., Rancho Dominguez, Calif., USA) in an autoclaved dish. J2 that passed through the filter within 3 days were used immediately for assays.
(§2) The assays were conducted in 96-well polystyrene plates. For the assays with immersed eggs, each well received approximately 50 eggs in 35 μl of sterile deionized water (SDW). For assays with previously hatched J2, a suspension of approximately 50 J2 in 35 μl of SDW was placed into each well. Each well then received 165 μl of treatment or control. The solvent used to dissolve the test chemicals was a 1:1:1 mixture referred to herein as CTD: equal parts Cremophor® EL Castor Oil (BASF Corporation, Vandalia, Ill., USA), Tween 80® (Sigma-Aldrich, St. Louis, Mo., USA), and DMSO (Sigma-Aldrich). A high and low rate of each compound was tested. After addition to the nematode suspensions in the wells, the low and high rates were 83.3 and 166.7 μg/ml of each test compound, respectively, dissolved in 0.5% and 1.0% of each of the three combined solvents. Controls were CTD equivalent to the low and high rates, and SDW. Because of the large number of treatments, the test compounds were divided into two groups for the egg immersion assays. The compounds tested in the egg immersion Assay 1 were 3, 6a, 6e, 6f, 6g, 6n, 7a, 7c, 7e, 7f, 7n, 11, 12, 16, and 17. The compounds tested in the egg immersion Assay 2 were 6b, 6h, 6i, 6j, 6k, 6l , 7b, 7g, 7h, 7i, 7j, 7k, 7l, and 7m (data not shown). Test compounds used for assays with previously hatched J2 were selected based on results with the egg assays. The five compounds tested were 6b, 6f, 6g, 6i, and 7k, high and low rates.
(§3) Each polystyrene culture plate was covered with a plastic adhesive sheet (Excel Scientific, Inc., Victorville, Calif., USA) and incubated at 25° C. Ten wells (water controls) or five wells (all other treatments) were used per treatment in each assay. In egg immersion assays, total numbers of hatched J2, and numbers of mobile and immobile J2, were counted after 2 and 7 days incubation in the test compounds. In the first assay with previously hatched J2, the numbers of mobile and immobile J2 were counted after 1 and 2 days incubation, the treatments removed and replaced with a SDW rinse, and 2 days later the mobile vs. immobile J2 counted again. In assays with 6g and 7k, high rates and counts were made on Days 1, 2, 4, and 6, without a SDW rinse.
Data from the M. incognita assays were analyzed with the statistical package JMP 11.2.0 (SAS Institute, Cary, N.C., USA). Differences among numbers of hatched J2 in each treatment, and among percentage of mobile J2 per treatment (number mobile J2/total J2×100), were determined by the ANOVA, and means were compared using Tukey Kramer's adjustment for multiple comparisons (P<0.05). For percent mobile J2 on Day 2 in egg immersion Assays 1 and 2, and Day 4 with the five compounds in the J2 immersion assay, data were log10 (x+1)-transformed before analysis. Data presented are nontransformed means.

[2] = tested on: Meloidogyne incognita second-stage juveniles (J2); test: M. incognita assay with previously hatched J2 immersed in test solutions; settings: in vivo
Description: as §1
as §2, with “The five compounds tested were 6b, 6f, 6g, 6i, and 7k, high and low rates.” left out
as §3, with “Ten wells (water controls) or five wells (all other treatments) were used per treatment in each assay.” left out, “In assays with 6g and 7k, high rates and counts were made on Days 1, 2, 4, and 6, without a SDW rinse.” left out
Data from the M. incognita assays were analyzed with the statistical package JMP 11.2.0 (SAS Institute, Cary, N.C., USA). Differences among numbers of hatched J2 in each treatment, and among percentage of mobile J2 per treatment (number mobile J2/total J2×100), were determined by the ANOVA, and means were compared using Tukey Kramer's adjustment for multiple comparisons (P<0.05). […]

[3] = tested on: Mycobacterium intracellulare ATCC 23068; test: Antimicrobial microplate assay (modified CLSI, AlamarBlue); assay type: cell-based; settings: ATCC23068, My. intracellulare
Description: (§4) All organisms were obtained from the American Type Culture Collection (ATCC; Manassas, Va., USA) and included the fungi Cryptococcus neoformans ATCC 90113 and the bacteria Staphylococcus aureus ATCC 29213, methicillin-resistant S. aureus ATCC 33591 (MRSA), and Mycobacterium intracellulare ATCC 23068. All organisms were tested using modified versions of the CLSI (formerly NCCLS) methods. For all organisms excluding My. intracellulare, optical density was used to monitor growth. Medium supplemented with 5% AlamarBlue® (BioSource International, Camarillo, Calif., USA) was utilized for growth detection of My. intracellulare. Samples (dissolved in DMSO) were serially diluted in 20% DMSO/saline and transferred (10 μl) in duplicate to 96-well flat-bottom microplates. Inocula were prepared by correcting the OD630 of microbe suspensions in Sabouraud Dextrose for Cr. neoformans, cation-adjusted Mueller-Hinton (Difco) at pH 7.3 for Staphylococcus spp., and 5% AlamarBlue® (BioSource International) in Middlebrook 7H9 broth with OADC enrichment, pH=7.0 for My. intracellulare, to afford an assay volume of 200 μl and final target inocula of: Cr. neoformans.: b 1.5×10^3, My. intracellulare: 2.0×10^6, and Staphylococcus spp.,: 5.0×10^5 CFU/ml. Final sample test concentrations were 1/100th the DMSO stock concentration. […] All organisms were read at either 530 nm using the Biotek Powerwave XS plate reader (Bio-Tek Instruments, VT) or 544ex1590em (My. intracellulare) using the Polarstar Galaxy Plate Reader (BMG LabTechnologies, Germany) before and after incubation: Staphylococcus spp. at 35° C. for 16-20 h, Cr. neoformans at 35° C. for 70-74 h, and My. intracellulare at 37° C. and 10% CO2 for 70-74 h. IC50 Values (concentrations that afford 50% inhibition relative to controls) werecalculated using XLfit 4.2 software (IDBS, Alameda, Calif.) using fit model 201.

[4] = tested on: Cryptococcus neoformans ATCC 90113; test: Antimicrobial microplate assay (modified CLSI); assay type: cell-based; settings: Cryptococcus neoformans, ATCC90113; Cr. neoformans
Description: All organisms were obtained from the American Type Culture Collection (ATCC; Manassas, Va., USA) and included the fungi Cryptococcus neoformans ATCC 90113 and the bacteria Staphylococcus aureus ATCC 29213, methicillin-resistant S. aureus ATCC 33591 (MRSA), and Mycobacterium intracellulare ATCC 23068. All organisms were tested using modified versions of the CLSI (formerly NCCLS) methods. For all organisms excluding My. intracellulare, optical density was used to monitor growth. Medium supplemented with 5% AlamarBlue® (BioSource International, Camarillo, Calif., USA) was utilized for growth detection of My. intracellulare. Samples (dissolved in DMSO) were serially diluted in 20% DMSO/saline and transferred (10 μl) in duplicate to 96-well flat-bottom microplates. Inocula were prepared by correcting the OD630 of microbe suspensions in Sabouraud Dextrose for Cr. neoformans, cation-adjusted Mueller-Hinton (Difco) at pH 7.3 for Staphylococcus spp., and 5% AlamarBlue® (BioSource International) in Middlebrook 7H9 broth with OADC enrichment, pH=7.0 for My. intracellulare, to afford an assay volume of 200 μl and final target inocula of: Cr. neoformans.: b 1.5×10^3, My. intracellulare: 2.0×10^6, and Staphylococcus spp.,: 5.0×10^5 CFU/ml. Final sample test concentrations were 1/100th the DMSO stock concentration. Drug controls (Ciprofloxacin (ICN Biomedicals, Ohio, USA) for bacteria and Amphotericin B (ICN Biomedicals) for fungi) were included in each assay. All organisms were read at either 530 nm using the Biotek Powerwave XS plate reader (Bio-Tek Instruments, VT) or 544ex1590em (My. intracellulare) using the Polarstar Galaxy Plate Reader (BMG LabTechnologies, Germany) before and after incubation: Staphylococcus spp. at 35° C. for 16-20 h, Cr. neoformans at 35° C. for 70-74 h, and My. intracellulare at 37° C. and 10% CO2 for 70-74 h. IC50 Values (concentrations that afford 50% inhibition relative to controls) werecalculated using XLfit 4.2 software (IDBS, Alameda, Calif.) using fit model 201.

[5] = tested on: methicillin-resistant S. aureus ATCC 33591 (MRSA); test: Antimicrobial microplate assay (modified CLSI); assay type: cell-based; settings: Staphylococcus aureus
Description: as §4

[6] = tested on: Staphylococcus aureus ATCC 29213; test: Antimicrobial microplate assay (modified CLSI); assay type: cell-based; settings: ATCC29213, S. aureus
Description: as §4

C. fragariae = test: Direct bioautography, antifungal; assay type: cell-based, Colletotrichum fragariae; settings: Colletotrichum fragariae; 2 mM; 4 μl spotted (2 μl of the positive controls); average of 2 assays; read-out: zones of inhibition
Description: (§5) The analogs were tested for activity against Colletotrichum acutatum SIMMONDS, C. fragariae BROOKS, and C. gloeosporioides (PENZ) PENZ & SACC. in Penz., using a direct bioautography method as previously described by Tabanca et al. (Nat. Prod. Commun. 2008, 3, 1073) and Wang, et al. (J. Agric. Food Chem. 2013, 61, 4551). Technical grade commercial fungicide standards benomyl, cyprodinil, azoxystrobin, and captan were used at 0.9-1.61 μg/μl concentrations in 95% EtOH. After sample application, each TLC plate was subsequently sprayed with a spore suspension (3.0×10^5 spores/ml) of the fungus of interest and incubated in a moisture chamber for 4 days at 26° C. with a 12 hour photoperiod. Clear zones of fungal growth inhibition on the TLC plate indicated the presence of antifungal constituents in each extract or pure compound. The test compounds were prepared at 2 mM soln. in 95% EtOH, and 4 μl were spotted on the plates (2 μl of the positive controls).

Colletotrichum acutatum = test: Direct bioautography, antifungal; assay type: cell-based; settings: Colletotrichum acutatum; 2 mM; 4 μl spotted (2 μl of the positive controls); average of 2 assays; read-out: zones of inhibition
Description: as §5

C. gloeosporioides = test: Direct bioautography, antifungal; assay type: cell-based, Colletotrichum gloeosporioides; settings: Colletotrichum gloeosporioides; 2 mM; 4 μl spotted (2 μl of the positive controls); average of 2 assays; read-out: zones of inhibition
Description: as §5

[7] = 7 days, high rate (166.7 μg/ml)

Which results are given for COc1cc(/C=C/c2ccc(Cl)cc2)cc(OC)c1C [Compound 6f, (E)-1,3-dimethoxy-5-(4-chlorostyryl)-2-methylbenzene]?
Percent mobile J2, assay 1 [1, 7]: 71.3%; Percent mobile J2, assay 1 ([1]; 7 days, low rate (83.3 μg/ml)): 93.9%; effect on mobility of J2 hatched from eggs immersed in solutions (in words) [1]: some suppressive effect on mobility; effect on mobility of J2 previously hatched in water and immersed directly (in words) [2]: only 6g and 7k had an effect on J2 mobility

COc1cc(/C=C/c2ccc(Br)cc2)cc(OC)c1C [Compound 6g, (E)-1,3-dimethoxy-5-(4-bromostyryl)-2-methylbenzene] was tested. Which “Percent mobile J2, assay 1” value [1, 7] did it give?
Its value is 74.6%.

And the “Percent mobile J2, assay 1” value ([1]; 7 days, low rate (83.3 μg/ml))?
The value was 89.2%.

What about the “effect on mobility of J2 hatched from eggs immersed in solutions (in words)” value [1] of the same compound?
Its value is “some suppressive effect on mobility”.

What about the “effect on mobility of J2 previously hatched in water and immersed directly (in words)” value [2] of the same compound?
Its value is “had an effect on J2 mobility”.

Which results are given for COc1cc(/C=C/c2ccc(Cl)c(Cl)c2)cc(OC)c1C [Compound 6i, (E)-1,3-dimethoxy-5-(3,4-dichlorostyryl)-2-methylbenzene]?
Percent mobile J2, assay 2 ([1]; 2 days, high rate (166.7 μg/ml)): 100.0%; Percent mobile J2, assay 2 ([1]; 2 days, low rate (83.3 μg/ml)): 71.0%; Percent mobile J2, assay 2 [1, 7]: 93.2%; Percent mobile J2, assay 2 ([1]; 7 days, low rate (83.3 μg/ml)): 87.7%; effect on mobility of J2 hatched from eggs immersed in solutions (in words) [1]: some suppressive effect on mobility; effect on mobility of J2 previously hatched in water and immersed directly (in words) [2]: only 6g and 7k had an effect on J2 mobility

What does the source list for COc1cc(/C=C/c2ccc(O)cc2)cc(OC)c1C [Compound 16, (E)-4-(3,5-dimethoxy-4-methylstyryl)phenol]?
IC50 [3]: 34 µM; MIC [3]: 74 µM (≈ 20 µg/mL); IC50 [4]: 5.22 µM; MIC [4]: 9.25 µM (≈ 2.5 µg/mL); IC50 [5]: 43.7 µM; MIC [5]: 74 µM (≈ 20 µg/mL); IC50 [6]: 20.4 µM; MIC [6]: 74 µM (≈ 20 µg/mL)

Which zone of inhibition at 2000 µM (C. fragariae) does the source give for Cc1cc(C2CC2)nc(Nc2ccccc2)n1 [Cyprodinil, cyprodinil] here?
Its zone of inhibition at 2000 µM is 21.5 mm.

And the zone of inhibition at 2000 µM (Colletotrichum acutatum)?
Its zone of inhibition at 2000 µM is 18 mm.

What about the zone of inhibition at 2000 µM (C. gloeosporioides) of the same compound?
The zone of inhibition at 2000 µM was 21.5 mm.
